This is an account of results in publication PMC3420359 (Journal of computer-aided molecular design, 2011).

The target of one test is rTRPV1 T550A (Rattus norvegicus, UniProt O35433, T550A). Kind of test: biochemical. The test is classed as binding.
For the next test, the target named is rTRPV1 M547L (Rattus norvegicus, UniProt O35433, M547L). Kind of test: biochemical. The class given is binding.
The next test addresses rTRPV1 T550S (Rattus norvegicus, UniProt O35433, T550S). Kind of test: biochemical. The test is classed as binding.
The target in the next test is rTRPV1 T550I (Rattus norvegicus, UniProt O35433, T550I). Kind of test: biochemical. The class given is binding.
Chain of rTRPV1 T550I (O35433 whole entry T550I): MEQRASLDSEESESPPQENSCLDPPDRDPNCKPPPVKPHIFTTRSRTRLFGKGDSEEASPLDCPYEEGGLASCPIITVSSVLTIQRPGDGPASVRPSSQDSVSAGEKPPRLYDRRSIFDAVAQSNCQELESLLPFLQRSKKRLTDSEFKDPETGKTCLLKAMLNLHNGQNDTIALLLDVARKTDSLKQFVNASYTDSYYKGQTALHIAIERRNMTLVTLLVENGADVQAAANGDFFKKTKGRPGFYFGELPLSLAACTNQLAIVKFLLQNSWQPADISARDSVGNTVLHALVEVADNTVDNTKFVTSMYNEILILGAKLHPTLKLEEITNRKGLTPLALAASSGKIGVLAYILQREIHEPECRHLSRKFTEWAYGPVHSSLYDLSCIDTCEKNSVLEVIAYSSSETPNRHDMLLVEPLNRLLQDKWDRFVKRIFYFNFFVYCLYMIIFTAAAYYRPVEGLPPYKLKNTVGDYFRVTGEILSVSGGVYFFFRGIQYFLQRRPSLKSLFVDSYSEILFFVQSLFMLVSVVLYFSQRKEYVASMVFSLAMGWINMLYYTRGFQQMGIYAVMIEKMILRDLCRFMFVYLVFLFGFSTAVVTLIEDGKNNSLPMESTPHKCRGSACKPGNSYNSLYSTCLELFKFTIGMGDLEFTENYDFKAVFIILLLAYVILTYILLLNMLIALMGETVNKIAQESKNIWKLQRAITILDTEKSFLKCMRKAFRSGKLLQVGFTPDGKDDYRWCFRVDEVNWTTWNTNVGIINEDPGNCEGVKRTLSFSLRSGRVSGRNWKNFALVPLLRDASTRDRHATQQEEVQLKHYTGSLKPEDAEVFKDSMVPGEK
Another test has as its target rTRPV1 WT (Rattus norvegicus, UniProt O35433). Kind of test: biochemical. The test is classed as binding.
The next test addresses rTRPV1 Y511F (Rattus norvegicus, UniProt O35433, Y511F). Kind of test: biochemical. The test is classed as binding.
Another test concerns the target TRPV1. The following applies: cited from earlier work.

The structures appear in SMILES notation.

Chain of rTRPV1 WT (O35433 whole entry): as the sequence (O35433 whole entry T550I) above, with I550T counted along it
Chain of rTRPV1 M547L (O35433 whole entry M547L): as the sequence (O35433 whole entry T550I) above, with M547L, I550T counted along it
Chain of rTRPV1 T550A (O35433 whole entry T550A): as the sequence (O35433 whole entry T550I) above, with I550A counted along it
Chain of rTRPV1 T550S (O35433 whole entry T550S): as the sequence (O35433 whole entry T550I) above, with I550S counted along it
Chain of rTRPV1 Y511F (O35433 whole entry Y511F): as the sequence (O35433 whole entry T550I) above, with Y511F, I550T counted along it

With `C=C(C)[C@]12C[C@@H](C)[C@@]34O[C@](Cc5ccccc5)(O[C@@H]1[C@@H]3C=C(COC(=O)Cc1ccc(O)c(OC)c1)C[C@]1(O)C(=O)C(C)=C[C@@H]41)O2` [RTX, resiniferatoxin], the Kd was determined as 0.417 ± 0.062 nM on rTRPV1 T550A; 2.38 ± 0.24 nM on rTRPV1 M547L; 0.233 ± 0.022 nM at rTRPV1 T550S; 4.16 ± 0.82 nM at rTRPV1 T550I; 0.203 ± 0.02 nM at rTRPV1 WT; 0.79 ± 0.13 nM on rTRPV1 Y511F. On rTRPV1 WT, this compound showed a Maximal binding capacity of 6400 fmol/mg protein. The Ratio at rTRPV1 WT came out at 1.0.
As for `COc1cc(CNC(=S)NCC(COC(=O)C(C)(C)C)Cc2ccc(C(C)(C)C)cc2)ccc1O` (stereo not drawn) [sRTX, N-{3-pivaloyloxy-2-(4-t-butylbenzyl)propyl}-N′-(4-hydroxyl-3-methoxybenzyl)thiourea], the Ki at TRPV1 was 11 nM.

Broadly, the Kd is a measure of binding affinity in units of concentration. The low end stands for tighter binding, the high end for weaker binding. In general, Ki refers to the equilibrium dissociation constant of an inhibitor or competing ligand from its target.
